Source: US20180318199A1, “Pharmaceutical Composition Having Anti-Aging Properties against High-Glucose” (TAIWAN LEADER BIOTECH CORP., priority 2017, published 2018)
Entries after “also recorded” stand apart in the source; their conditions may differ.

Tests used:
Assay type in all cases: cell-based, human
HUVECs = assay: SA-β-gal senescence assay in HUVECs; conditions: ANM 10 μM + HG 30 mM, 48 h; HG alone 6.38-fold
Method: Please refer to FIG. 9A˜FIG. 9H, which are views showing HG-induced senescence prevented by ANM in human umbilical vein endothelial cells (HUVECs). As shown in the figures, to further delineate the protective effects of ANM on another cell system, experiments are designed to investigate the protective effect of ANM on HUVECs incubated in media containing either NG or HG alone or with ANM for 48 h. Cell viability is measured by MTT assay. […] Cell viability is determined by MTT assay. Percentage of viable cells are normalized with control cells (NG). […] In addition, in FIG. 9B, cellular senescence is determined by SA-β-gal activity assay. […] In addition, in FIG. 9C and FIG. 9D, total cell lysate is extracted and senescence-associated marker proteins including p16^INK4A, p21^CIP1 total and acetylated p53 and FoxO1 are measured by western blot analysis.
Senescence-associated β-galactosidase (SA-β-gal) activity is determined in formaldehyde-fixed histochemical staining kit according to the manufacturer's instructions (Cell Signaling Technology, Danvers, Calif.). Briefly, cells are grown in 6-well plates at a density of 5×10^4 cells/well, and incubated with HG or test samples for 48 h (HUVECs) or 72 h (HNDFs). […]

HNDFs [1] = assay: Trypan blue exclusion cell proliferation assay in HNDFs; conditions: 72 h
Method: To further clarify the effect of antcins, HG-induced reduction in cell proliferation is determined. In FIG. 2D, to determine the effect of antcins on cell proliferation efficacy, 5×10^4 cells/well of HNDFs are incubated with antcins in 6-well plates in the presence of HG (30 mM) for 72 h. Number of viable cells is quantified by the tryphan blue exclusion method. Results are expressed as mean±S.E.M of three indipendent expriments. Statistical significance is set at ^ϕP<0.05 as compared to NG vs. HG and *P<0.05 as compared to HG vs. samples. […] Therefore, the molecular mechanism underlying the protective effect of ANM is explored next.
Furthermore, in FIG. 3C, to determine the effect of ANM or NAC on cell proliferation, 5×10^4 cells/well of HNDFs are incubated in a 6-well plate with ANM (10 μM) or NAC (100 μM) in the presence of HG (30 mM) for 72 h. Number of viable cells is quantified by the tryphan blue exclusion method. Results expressed as mean±S.E.M of three independent experiments. Statistical significance is set at ^ϕP<0.05 as compared to NG vs. HG and *P<0.05 as compared to HG vs. samples.
Cell proliferation is evaluated using trypan blue exclusion assay as described previously with minor modification. Cells are plated into 6-well plates at a density of 5×10^4 cells/well. After incubation overnight, cells are treated with test samples in the presence or absence of HG for 24-72 h. Cells exposed to 0.2% Trypan blue are then counted in a hemocytometer, and cells stained with Trypan blue are excluded. Percentage of viable cells is calculated based on the ratio of viable cells to total cell population in each well. The proliferation rate is calculated based on the number of viable cells in HG or sample-treated groups versus the NG-treated group.

HNDFs [2] = assay: SA-β-gal senescence assay in HG-induced HNDFs; conditions: 72 h
Method: Next, the protective effects of antcins on HG-induced HNDF senescence are examined. In FIG. 2B, cells were incubated with ANA (10 μM), ANH (10 μM) and ANM (10 μM) in the presence of HG (30 mM) for 72 h. Cellular senescence is determined by SA-β-gal activity. […] After cells are co-incubated with HG and antcins (ANA, ANH and ANM) for 72 h, senescence is measured by SA-β-gal assay.
Therefore, in order to examine whether the ROS inhibitory effect may be extended to suppress HG-induced senescence, HG-induced senescenece eliminated by ANM is examined. In FIG. 4B, HNDFs are incubated with ANM (10 μM) or NAC (100 μM) in the presence or absence of HG (30 mM) for 72 h. Cellular senescence is determined by SA-β-gal assay. […] As is shown, cells are co-incubated with HG and ANM or NAC for 72 h.
Senescence-associated β-galactosidase (SA-β-gal) activity is determined in formaldehyde-fixed histochemical staining kit according to the manufacturer's instructions (Cell Signaling Technology, Danvers, Calif.). Briefly, cells are grown in 6-well plates at a density of 5×10^4 cells/well, and incubated with HG or test samples for 48 h (HUVECs) or 72 h (HNDFs). After incubation, cells are stained with SA-β-gal staining solution at pH 6.0 overnight and then the development of blue staining is observed and photographed under a bright-field microscope (Motic Electric Group, Xiamen, P.R. China).

## C=C(CCC(C)C1CCC2C3=C(C(=O)C(O)C21C)C1(C)CCC(O)C(C)C1CC3)C(C)C(=O)O (stereo not drawn) [ANM, antcin M]
HUVECs
  SA-β-gal staining in HUVECs: 1.36 fold
HNDFs [1]; ANM 10 μM + HG
  HG-induced reduction in cell number, control siRNA cells: significantly blocked
  protection of cell number, SIRT-1 siRNA transfected cells: partial protection
HNDFs [1]; ANM + HG
  HG-induced reduction in cell proliferation, Nrf2 knock-down cells: partially inhibited
  cell proliferation, Nrf2 and SIRT-1 knock-down cells: fails to rescue
HNDFs [1]; antcins 10 μM + HG 30 mM, trypan blue exclusion
  cell proliferation (number of viable cells) vs HG group: two-fold increase; also recorded: increased cell proliferation
HNDFs [2]; 10 μM compound + HG 30 mM, HG alone 9.59-fold (FIG. 2B)
  SA-β-gal positive cells: 1.51 fold
HNDFs [2]; ANM 10 μM + HG
  HG-induced senescence (SA-β-gal activity), control siRNA cells (SIRT-1 experiment): significantly inhibits
  HG-induced senescence (SA-β-gal), control siRNA cells (Nrf2 experiment): significantly inhibits
  HG-induced senescence (SA-β-gal), siNrf2-transfected cells: significantly prevents
HNDFs [2]; ANM 10 μM or NAC 100 μM + HG 30 mM, HG alone 5.72-fold (FIG. 4B)
  SA-β-gal positive cells: 1.89 fold
HNDFs [2]; ANM 10 μM or RES + HG
  SA-β-gal activity, SIRT-1 siRNA transfected cells: remains partially elevated
